{
  "source": "patent US3992533A",
  "about": "“O-ethyl-S-N-propyl-O-(2-chloro-4-bromophenyl)-thiophosphate” (priority 1971, dated 1976)",
  "key": {"[1]": {"test_system": "third instar larvae of Heliothis virescens", "assay": "Insecticidal test on sprayed potted cotton and tobacco plants, initial and residual effect", "format": "in vivo", "experimental": "Potted cotton and tobacco plants respectively were sprayed with 125 ppm of active ingredient in the form of an aqueous emulsion. After the coating had dried, the treated plants were infested with third instar larvae of Heliothis virescens. The tests were running under greenhouse conditions at 24° C and 60% relative humitidy. Assessments to evaluate the initial effect of the immediate acitivity of the active ingredient were carried out 4, 24 and 48 hours after the infestation of the plants with the pests. Assessments to evaluate the […] of the activity over a prolonged period of the active ingredient were carried out as follows: the coated test plants were infested with the test individuals 2 and 8 days respectively after the application of the active ingredient. Each test was checked after 4, 24 and 48 hours. Test compounds"}, "[2]": {"assay": "Acute oral toxicity in rat", "conditions": "in vivo, per os"}, "Tribolium confusum": {"test_system": "Tribolium confusum", "assay": "Talcum dust on filter paper, dosage for 100% control within 24 hours", "format": "in vivo", "conditions": "5% talcum dust on filter paper", "experimental": "(§1) A dust on a base of talcum and containing 5% active ingredient was applied to filter paper in concentrations of 100, 50, 25, 12.5 6.2 and 3.1 mg of active substance per m^ 2. Onto each of the treated substrates were applied 5 Necrobia rufipes, Rhyzoperta dominica, Anthrenus vorax and Tribolium confusum individuals respectively. Evaluation took place 24 hours later. Test compounds were same as set forth in Example 2."}, "Rhyzoperta dominica": {"test_system": "Rhyzoperta dominica", "assay": "Talcum dust on filter paper, dosage for 100% control within 24 hours", "format": "in vivo", "conditions": "5% talcum dust on filter paper", "experimental": "as §1"}, "Anthrenus vorax": {"test_system": "Anthrenus vorax", "assay": "Talcum dust on filter paper, dosage for 100% control within 24 hours", "format": "in vivo", "conditions": "5% talcum dust on filter paper", "experimental": "as §1"}, "Necrobia rufipes": {"test_system": "Necrobia rufipes", "assay": "Talcum dust on filter paper, dosage for 100% control within 24 hours", "format": "in vivo", "conditions": "5% talcum dust on filter paper", "experimental": "as §1"}, "Tetranychus urticae": {"test_system": "Tetranychus urticae", "assay": "Acaricidal action on Phaseolus vulgaris", "format": "in vivo", "conditions": "larvae, adults and eggs evaluated after 7 days; greenhouse 25° C", "experimental": "The number of living and dead larvae, adults and eggs were evaluated after 7 days under a stereoscopic microscope and the result expressed in percentages. During the \"interim\", the treated plants were kept in greenhouse compartments at 25° C."}, "cotton pests": {"test_system": "cotton pests", "assay": "Comparison of activity with closest known compounds", "format": "in vivo", "conditions": "on at least the same toxicity level; especially initial effect towards cotton pests"}, "[3]": {"conditions": "125 ppm aqueous emulsion, initial effect, assessment 4 h after infestation, 24° C, 60% relative humidity, read-out: % mortality, initial, 4 hours"}, "[4]": {"conditions": "125 ppm, infested 2 days after application, assessment at 24 h, read-out: % mortality, residual 2d, 24 hours"}, "[5]": {"conditions": "125 ppm, infested 2 days after application, assessment at 48 h, read-out: % mortality, residual 2d, 48 hours"}, "[6]": {"conditions": "125 ppm, infested 8 days after application, assessment at 4 h, read-out: % mortality, residual 8d, 4 hours"}, "[7]": {"conditions": "125 ppm, infested 8 days after application, assessment at 24 h, read-out: % mortality, residual 8d, 24 hours"}, "[8]": {"conditions": "125 ppm, infested 8 days after application, assessment at 48 h, read-out: % mortality, residual 8d, 48 hours"}, "[9]": {"conditions": "125 ppm, initial effect, assessment 24 h after infestation, read-out: % mortality, initial, 24 hours"}, "[10]": {"conditions": "125 ppm, initial effect, assessment 48 h after infestation, read-out: % mortality, initial, 48 hours"}, "[11]": {"conditions": "4 h, read-out: % mortality, residual 2d, 4 hours"}},
  "note": "Like-named read-outs stand apart in the source and are kept apart here.",
  "data": [
    {"smiles": "CCCSP(=O)(OCC)Oc1ccc(Cl)cc1Cl", "note": "(centres unmarked) [II, O-ethyl-S-n-propyl-O-(2,4-dichlorophenyl)-thiophosphoric acid ester]", "values": [
      {"measurement": "mortality at 125 ppm", "setting": "[1]; [3]", "value": 80, "unit": "%"},
      {"measurement": "mortality at 125 ppm", "setting": "[1]; [4]", "value": 100, "unit": "%"},
      {"measurement": "mortality at 125 ppm", "setting": "[1]; [5]", "value": 100, "unit": "%"},
      {"measurement": "mortality at 125 ppm", "setting": "[1]; [6]", "value": 30, "unit": "%"},
      {"measurement": "mortality at 125 ppm", "setting": "[1]; [7]", "value": 50, "unit": "%"},
      {"measurement": "mortality at 125 ppm", "setting": "[1]; [8]", "value": 100, "unit": "%"},
      {"measurement": "mortality at 125 ppm", "setting": "[1]; [9]", "value": 90, "unit": "%"},
      {"measurement": "mortality at 125 ppm", "setting": "[1]; [10]", "value": 100, "unit": "%"},
      {"measurement": "mortality at 125 ppm", "setting": "[1]; [11]", "value": 50, "unit": "%"},
      {"measurement": "LD50", "setting": "[2]", "value": 400, "unit": "mg/kg"},
      {"measurement": "Dosage needed which provides a 100% control within 24 hours", "setting": "Tribolium confusum", "value": 100, "unit": "mg a.i./m^2"},
      {"measurement": "Dosage needed which provides a 100% control within 24 hours", "setting": "Rhyzoperta dominica", "value": 50, "unit": "mg a.i./m^2"},
      {"measurement": "Dosage needed which provides a 100% control within 24 hours", "setting": "Anthrenus vorax", "value": 50, "unit": "mg a.i./m^2"},
      {"measurement": "Dosage needed which provides a 100% control within 24 hours", "setting": "Necrobia rufipes", "value": 6.2, "unit": "mg a.i./m^2"}
    ]},
    {"smiles": "CCCSP(=O)(OCC)Oc1ccc(Br)cc1Br", "note": "(centres unmarked) [III, O-ethyl-S-n-propyl-O-(2,4-dibromophenyl)-thiophosphoric acid ester]", "values": [
      {"measurement": "mortality at 125 ppm", "setting": "[1]; [3]", "value": 75, "unit": "%"},
      {"measurement": "mortality at 125 ppm", "setting": "[1]; [4]", "value": 100, "unit": "%"},
      {"measurement": "mortality at 125 ppm", "setting": "[1]; [5]", "value": 100, "unit": "%"},
      {"measurement": "mortality at 125 ppm", "setting": "[1]; [6]", "value": 0, "unit": "%"},
      {"measurement": "mortality at 125 ppm", "setting": "[1]; [7]", "value": 5, "unit": "%"},
      {"measurement": "mortality at 125 ppm", "setting": "[1]; [8]", "value": 55, "unit": "%"},
      {"measurement": "mortality at 125 ppm", "setting": "[1]; [9]", "value": 100, "unit": "%"},
      {"measurement": "mortality at 125 ppm", "setting": "[1]; [10]", "value": 100, "unit": "%"},
      {"measurement": "mortality at 125 ppm", "setting": "[1]; [11]", "value": 30, "unit": "%"},
      {"measurement": "LD50", "setting": "[2]", "value": 300, "unit": "mg/kg"},
      {"measurement": "Dosage needed which provides a 100% control within 24 hours", "setting": "Tribolium confusum", "value": "> 100", "unit": "mg a.i./m^2"},
      {"measurement": "Dosage needed which provides a 100% control within 24 hours", "setting": "Rhyzoperta dominica", "value": 100, "unit": "mg a.i./m^2"},
      {"measurement": "Dosage needed which provides a 100% control within 24 hours", "setting": "Anthrenus vorax", "value": 100, "unit": "mg a.i./m^2"},
      {"measurement": "Dosage needed which provides a 100% control within 24 hours", "setting": "Necrobia rufipes", "value": 6.2, "unit": "mg a.i./m^2"}
    ]},
    {"smiles": "CCCSP(=O)(OCC)Oc1ccc(Br)cc1Cl", "note": "(centres unmarked) [I, O-ethyl-S-N-propyl-O-(2-chloro-4-bromophenyl)-thiophosphate]", "values": [
      {"measurement": "mortality at 125 ppm", "setting": "[1]; [3]", "value": 100, "unit": "%"},
      {"measurement": "mortality at 125 ppm", "setting": "[1]; 125 ppm, infested 2 days after application, assessment at 4 h, read-out: % mortality, residual 2d, 4 hours", "value": 100, "unit": "%"},
      {"measurement": "mortality at 125 ppm", "setting": "[1]; [4]", "value": 100, "unit": "%"},
      {"measurement": "mortality at 125 ppm", "setting": "[1]; [5]", "value": 100, "unit": "%"},
      {"measurement": "mortality at 125 ppm", "setting": "[1]; [6]", "value": 50, "unit": "%"},
      {"measurement": "mortality at 125 ppm", "setting": "[1]; [7]", "value": 100, "unit": "%"},
      {"measurement": "mortality at 125 ppm", "setting": "[1]; [8]", "value": 100, "unit": "%"},
      {"measurement": "mortality at 125 ppm", "setting": "[1]; [9]", "value": 100, "unit": "%"},
      {"measurement": "mortality at 125 ppm", "setting": "[1]; [10]", "value": 100, "unit": "%"},
      {"measurement": "acaricidal activity", "setting": "Tetranychus urticae", "value": "good activity"},
      {"measurement": "activities versus the closest known compounds", "setting": "cotton pests", "value": "surprisingly superior activities"},
      {"measurement": "LD50", "setting": "[2]", "value": "400 to 900", "unit": "mg/kg"},
      {"measurement": "Dosage needed which provides a 100% control within 24 hours", "setting": "Tribolium confusum", "value": 50, "unit": "mg a.i./m^2"},
      {"measurement": "Dosage needed which provides a 100% control within 24 hours", "setting": "Rhyzoperta dominica", "value": 25, "unit": "mg a.i./m^2"},
      {"measurement": "Dosage needed which provides a 100% control within 24 hours", "setting": "Anthrenus vorax", "value": 25, "unit": "mg a.i./m^2"},
      {"measurement": "Dosage needed which provides a 100% control within 24 hours", "setting": "Necrobia rufipes", "value": 3.1, "unit": "mg a.i./m^2"}
    ]}
  ]
}
